What all share (assay type): functional
Holding throughout (conditions): time 16-24 hrs

For test [1], the system named is Enterococcus faecium. As to the kind of experiment: Antibacterial activity against vancomycin-resistant Enterococcus faecium Efm-HS-0649 harboring VanA phenotype incubated for 16 to 24 hrs by broth microdilution assay.
The subject of test [2] is Enterococcus faecium. As to the kind of experiment: Antibacterial activity against vancomycin-resistant Enterococcus faecium Efm-HS-vb02 harboring VanB phenotype incubated for 16 to 24 hrs by broth microdilution assay. A general note: Broth dilution looks for growth in wells or tubes with falling amounts of substance.
For test [3], the system named is Escherichia coli. The experiment in a line: Antibacterial activity against Escherichia coli AB1157 incubated for 16 to 24 hrs by broth microdilution assay.
Test [4] deals with Acinetobacter baumannii. As to the kind of experiment: Antibacterial activity against Acinetobacter baumannii ATCC19606 incubated for 16 to 24 hrs by broth microdilution assay.
Test [5] concerns Pseudomonas aeruginosa. The experiment in a line: Antibacterial activity against Pseudomonas aeruginosa PAO1 incubated for 16 to 24 hrs by broth microdilution assay.
For test [6], the system named is Enterococcus faecium. As to the kind of experiment: Antibacterial activity against vancomycin-resistant Enterococcus faecium Efm-HS-08257 harboring VanM phenotype incubated for 16 to 24 hrs by broth microdilution assay.
The test system of test [7] is Staphylococcus aureus. As to the kind of experiment: Antibacterial activity against vancomycin-intermediate Staphylococcus aureus Mu50 incubated for 16 to 24 hrs by broth microdilution assay.
The test system of test [8] is Acinetobacter baumannii. As to the kind of experiment: Antibacterial activity against carbapenem-resistant Acinetobacter baumannii CRAB-1 clinical isolate incubated for 16 to 24 hrs by broth microdilution assay.
In test [9] the test system is Staphylococcus aureus. The experiment in a line: Antibacterial activity against methicillin-resistant Staphylococcus aureus USA300 LAC incubated for 16 to 24 hrs by broth microdilution assay.
For test [10], the system named is Klebsiella pneumoniae. The experiment in a line: Antibacterial activity against Klebsiella pneumoniae KP-1 incubated for 16 to 24 hrs by broth microdilution assay.
The test system of test [11] is Enterococcus faecium. As to the kind of experiment: Antibacterial activity against vancomycin-resistant Enterococcus faecium Efm-HS-vb01 harboring VanB phenotype incubated for 16 to 24 hrs by broth microdilution assay.

From ChEMBL document CHEMBL6134868, “Novel Aryl Sulfonium Modification on Vancomycin to Tackle MRSA and VRE In Vitro and In Vivo through Dual Enhanced Cell-Wall and Membrane Inhibition” (J Med Chem, 2025) come the findings set out here.

Each structure is given as a SMILES string.

Turning to `CN[C@H](CC(C)C)C(=O)N[C@H]1C(=O)N[C@@H](CC(N)=O)C(=O)N[C@H]2C(=O)N[C@H]3C(=O)N[C@H](C(=O)N[C@H](C(=O)NCCC[S+](C)CC(O)COc4ccc(C(F)(F)F)cc4)c4cc(O)cc(O)c4-c4cc3ccc4O)[C@H](O)c3ccc(c(Cl)c3)Oc3cc2cc(c3O[C@@H]2O[C@H](CO)[C@@H](O)[C@H](O)[C@H]2O[C@H]2C[C@](C)(N)[C@H](O)[C@H](C)O2)Oc2ccc(cc2Cl)[C@H]1O.O=C([O-])C(F)(F)F` (stereo not given in full), the MIC (commonly the least concentration at which growth counts as inhibited) in test [1] is 16 µg/mL; in [2], 4 µg/mL; in test [3], 32 µg/mL; in test [4], 32 µg/mL; in test [5], 128 µg/mL; in test [6], 8 µg/mL. Besides, the MIC in test [7] is 1 µg/mL; in test [8], 64 µg/mL; in [9], not above 0.063 µg/mL; in [10], more than 128 µg/mL; in [11], 8 µg/mL.
On to `CN[C@H](CC(C)C)C(=O)N[C@H]1C(=O)N[C@@H](CC(N)=O)C(=O)N[C@H]2C(=O)N[C@H]3C(=O)N[C@H](C(=O)N[C@H](C(=O)NCCC[S+](C)CC(O)COc4ccc(Cl)cc4)c4cc(O)cc(O)c4-c4cc3ccc4O)[C@H](O)c3ccc(c(Cl)c3)Oc3cc2cc(c3O[C@@H]2O[C@H](CO)[C@@H](O)[C@H](O)[C@H]2O[C@H]2C[C@](C)(N)[C@H](O)[C@H](C)O2)Oc2ccc(cc2Cl)[C@H]1O.O=C([O-])C(F)(F)F` (stereo not given in full), for which the MIC in test [1] was found to be 16 µg/mL; in test [2] it was 4 µg/mL; in [3] it was 16 µg/mL; in test [4], 32 µg/mL; in [5] it was 128 µg/mL; in [6] it was 8 µg/mL. Moreover, the MIC was 1 µg/mL in test [7]; 128 µg/mL in test [8]; not above 0.063 µg/mL in [9]; more than 128 µg/mL in [10]; 8 µg/mL in test [11].
Consider `CN[C@H](CC(C)C)C(=O)N[C@H]1C(=O)N[C@@H](CC(N)=O)C(=O)N[C@H]2C(=O)N[C@H]3C(=O)N[C@H](C(=O)N[C@H](C(=O)O)c4cc(O)c(CNCCC[S+](C)C[C@H](O)COc5ccccc5)c(O)c4-c4cc3ccc4O)[C@H](O)c3ccc(c(Cl)c3)Oc3cc2cc(c3O[C@@H]2O[C@H](CO)[C@@H](O)[C@H](O)[C@H]2O[C@H]2C[C@](C)(N)[C@H](O)[C@H](C)O2)Oc2ccc(cc2Cl)[C@H]1O.O=C([O-])C(F)(F)F` (stereo not given in full), for which the minimum inhibitory concentration (MIC) was more than 128 µg/mL in test [1]; 8 µg/mL in test [2]; 64 µg/mL in test [3]; more than 128 µg/mL in test [4]; more than 128 µg/mL in test [5]; 128 µg/mL in test [6]. The MIC is 16 µg/mL in test [7]; more than 128 µg/mL in test [8]; 2 µg/mL in test [9]; more than 128 µg/mL in test [10]; 4 µg/mL in [11].
`CN[C@H](CC(C)C)C(=O)N[C@H]1C(=O)N[C@@H](CC(N)=O)C(=O)N[C@H]2C(=O)N[C@H]3C(=O)N[C@H](C(=O)N[C@H](C(=O)NCCC[S+](C)CC(O)COc4ccc(-c5ccc(C(F)(F)F)cc5)cc4)c4cc(O)cc(O)c4-c4cc3ccc4O)[C@H](O)c3ccc(c(Cl)c3)Oc3cc2cc(c3O[C@@H]2O[C@H](CO)[C@@H](O)[C@H](O)[C@H]2O[C@H]2C[C@](C)(N)[C@H](O)[C@H](C)O2)Oc2ccc(cc2Cl)[C@H]1O.O=C([O-])C(F)(F)F` (stereo not given in full): the MIC in test [1] was 2 µg/mL; in [2], 0.5 µg/mL; in test [3], 16 µg/mL; in test [4], 32 µg/mL; in [5], more than 128 µg/mL; in [6], 1 µg/mL. The MIC was 0.25 µg/mL in test [7]; 128 µg/mL in test [8]; 0.5 µg/mL in test [9]; more than 128 µg/mL in [10]; 4 µg/mL in [11].
Regarding `CN[C@H](CC(C)C)C(=O)N[C@H]1C(=O)N[C@@H](CC(N)=O)C(=O)N[C@H]2C(=O)N[C@H]3C(=O)N[C@H](C(=O)N[C@H](C(=O)O)c4cc(O)cc(O)c4-c4cc3ccc4O)[C@H](O)c3ccc(c(Cl)c3)Oc3cc2cc(c3O[C@@H]2O[C@H](CO)[C@@H](O)[C@H](O)[C@H]2O[C@H]2C[C@](C)(NCCC[S+](C)C[C@@H](O)COc3ccccc3)[C@H](O)[C@H](C)O2)Oc2ccc(cc2Cl)[C@H]1O.O=C([O-])C(F)(F)F` (stereo not given in full), the MIC was 16 µg/mL in test [1]; 4 µg/mL in test [2]; 128 µg/mL in test [3]; 128 µg/mL in test [4]; more than 128 µg/mL in [5]; 16 µg/mL in test [6]. In addition, the minimal inhibitory concentration (MIC) in test [7] is 1 µg/mL; in [8] it was 128 µg/mL; in test [9], 0.25 µg/mL; in test [10], more than 128 µg/mL; in test [11], 16 µg/mL.
With `CC(C)C[C@H](C(=O)N[C@H]1C(=O)N[C@@H](CC(N)=O)C(=O)N[C@H]2C(=O)N[C@H]3C(=O)N[C@H](C(=O)N[C@H](C(=O)O)c4cc(O)cc(O)c4-c4cc3ccc4O)[C@H](O)c3ccc(c(Cl)c3)Oc3cc2cc(c3O[C@@H]2O[C@H](CO)[C@@H](O)[C@H](O)[C@H]2O[C@H]2C[C@](C)(N)[C@H](O)[C@H](C)O2)Oc2ccc(cc2Cl)[C@H]1O)N(C)CCC[S+](C)C[C@H](O)COc1ccccc1.O=C([O-])C(F)(F)F` (stereo not given in full), the MIC in [1] was more than 128 µg/mL; in test [2], 32 µg/mL; in test [3], more than 128 µg/mL; in [4], more than 128 µg/mL; in test [5] it was more than 128 µg/mL; in [6], 128 µg/mL. Besides, the MIC in test [7] is 8 µg/mL; in test [8] it was more than 128 µg/mL; in test [9], 2 µg/mL; in [10], more than 128 µg/mL; in [11], 64 µg/mL.
On to `CN[C@H](CC(C)C)C(=O)N[C@H]1C(=O)N[C@@H](CC(N)=O)C(=O)N[C@H]2C(=O)N[C@H]3C(=O)N[C@H](C(=O)N[C@H](C(=O)NCCC[S+](C)CC(O)COc4cccc(Cl)c4)c4cc(O)cc(O)c4-c4cc3ccc4O)[C@H](O)c3ccc(c(Cl)c3)Oc3cc2cc(c3O[C@@H]2O[C@H](CO)[C@@H](O)[C@H](O)[C@H]2O[C@H]2C[C@](C)(N)[C@H](O)[C@H](C)O2)Oc2ccc(cc2Cl)[C@H]1O.O=C([O-])C(F)(F)F` (stereo not given in full), for which the MIC in [1] was 16 µg/mL; in test [2], 2 µg/mL; in test [3], 16 µg/mL; in test [4] it was 32 µg/mL; in test [5], 128 µg/mL; in [6], 4 µg/mL. In addition, the MIC in [7] is 1 µg/mL; in test [8], 64 µg/mL; in test [9], 0.125 µg/mL; in [10] it was more than 128 µg/mL; in [11] it was 8 µg/mL.
Consider `CN[C@H](CC(C)C)C(=O)N[C@H]1C(=O)N[C@@H](CC(N)=O)C(=O)N[C@H]2C(=O)N[C@H]3C(=O)N[C@H](C(=O)N[C@H](C(=O)NCCC[S+](C)C[C@@H](O)COc4ccccc4)c4cc(O)cc(O)c4-c4cc3ccc4O)[C@H](O)c3ccc(c(Cl)c3)Oc3cc2cc(c3O[C@@H]2O[C@H](CO)[C@@H](O)[C@H](O)[C@H]2O[C@H]2C[C@](C)(N)[C@H](O)[C@H](C)O2)Oc2ccc(cc2Cl)[C@H]1O.O=C([O-])C(F)(F)F` (stereo not given in full), for which the MIC in [1] is 32 µg/mL; in test [2], 2 µg/mL; in [3] it was 16 µg/mL; in test [4] it was 64 µg/mL; in test [5] it was more than 128 µg/mL; in test [6], 16 µg/mL. The MIC in [7] was 2 µg/mL; in test [8] it was more than 128 µg/mL; in test [9], 0.25 µg/mL; in test [10] it was more than 128 µg/mL; in test [11], 16 µg/mL.
With `CN[C@H](CC(C)C)C(=O)N[C@H]1C(=O)N[C@@H](CC(N)=O)C(=O)N[C@H]2C(=O)N[C@H]3C(=O)N[C@H](C(=O)N[C@H](C(=O)O)c4cc(O)c(CNCCC[S+](C)CC(O)COc5ccccc5)c(O)c4-c4cc3ccc4O)[C@H](O)c3ccc(c(Cl)c3)Oc3cc2cc(c3O[C@@H]2O[C@H](CO)[C@@H](O)[C@H](O)[C@H]2O[C@H]2C[C@](C)(N)[C@H](O)[C@H](C)O2)Oc2ccc(cc2Cl)[C@H]1O.O=C([O-])C(F)(F)F` (stereo not given in full), the MIC in test [1] is 128 µg/mL; in test [2], 4 µg/mL; in [3], 32 µg/mL; in test [4], 128 µg/mL; in test [5], more than 128 µg/mL; in test [6], 64 µg/mL. Further, the minimum inhibitory concentration (MIC) in test [7] was 4 µg/mL; in test [8] it was 128 µg/mL; in test [9], 0.5 µg/mL; in test [10], more than 128 µg/mL; in test [11], 2 µg/mL.
For `CN[C@H](CC(C)C)C(=O)N[C@H]1C(=O)N[C@@H](CC(N)=O)C(=O)N[C@H]2C(=O)N[C@H]3C(=O)N[C@H](C(=O)N[C@H](C(=O)O)c4cc(O)cc(O)c4-c4cc3ccc4O)[C@H](O)c3ccc(c(Cl)c3)Oc3cc2cc(c3O[C@@H]2O[C@H](CO)[C@@H](O)[C@H](O)[C@H]2O[C@H]2C[C@](C)(NCCC[S+](C)C[C@H](O)COc3ccccc3)[C@H](O)[C@H](C)O2)Oc2ccc(cc2Cl)[C@H]1O.O=C([O-])C(F)(F)F` (stereo not given in full), the MIC in [1] is 16 µg/mL; in test [2], 4 µg/mL; in test [3] it was 128 µg/mL; in [4] it was 128 µg/mL; in [5], more than 128 µg/mL; in test [6], 16 µg/mL. In addition, the minimal inhibitory concentration (MIC) in test [7] was 1 µg/mL; in [8] it was more than 128 µg/mL; in [9] it was 0.125 µg/mL; in test [10], more than 128 µg/mL; in [11], 8 µg/mL.
